Tests used:
human TRPV3 = molecular target: T1, human TRPV3 (Homo sapiens, UniProt Q8NET8); assay: In vitro antagonism of recombinant human TRPV3 activation (FLIPR Tetra calcium assay); format: cell-based; details: HEK293 cells stably expressing human TRPV3; agonist 2-APB at 80 μM; actual measured value shown parenthetically; in most cases average of at least two runs; read-out: IC50
T1 construct: expressed in transfected cells
T1 sequence (Q8NET8 1-790): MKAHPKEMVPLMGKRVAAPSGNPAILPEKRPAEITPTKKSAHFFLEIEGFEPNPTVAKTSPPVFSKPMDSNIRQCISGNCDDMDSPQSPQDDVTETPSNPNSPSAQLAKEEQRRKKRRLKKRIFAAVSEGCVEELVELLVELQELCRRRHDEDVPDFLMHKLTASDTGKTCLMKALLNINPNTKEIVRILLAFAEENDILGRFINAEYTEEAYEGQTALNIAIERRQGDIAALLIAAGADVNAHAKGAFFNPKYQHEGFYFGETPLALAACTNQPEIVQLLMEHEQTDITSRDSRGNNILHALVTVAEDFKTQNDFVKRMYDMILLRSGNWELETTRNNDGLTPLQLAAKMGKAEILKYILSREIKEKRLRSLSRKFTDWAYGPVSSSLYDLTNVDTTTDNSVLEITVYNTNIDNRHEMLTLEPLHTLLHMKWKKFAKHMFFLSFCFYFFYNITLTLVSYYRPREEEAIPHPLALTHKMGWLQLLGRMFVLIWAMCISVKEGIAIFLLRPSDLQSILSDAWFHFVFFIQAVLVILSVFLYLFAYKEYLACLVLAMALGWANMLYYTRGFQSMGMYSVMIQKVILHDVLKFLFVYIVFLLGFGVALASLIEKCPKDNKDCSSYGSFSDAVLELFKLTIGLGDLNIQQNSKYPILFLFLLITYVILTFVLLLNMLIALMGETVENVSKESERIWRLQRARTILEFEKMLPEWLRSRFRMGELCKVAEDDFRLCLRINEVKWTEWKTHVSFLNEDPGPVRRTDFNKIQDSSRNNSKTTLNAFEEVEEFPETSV
Outline: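 Calcium flux read over a 10 min run: compound added at 10 s to Calcium-4-loaded human TRPV3-HEK293 cells, agonist 2-APB (80 μM, its EC80) after 3 min. IC50 derived from peak-minus-baseline signal as percentage of uninhibited 2-APB response, typically averaged over at least two runs.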

[1] = In vitro human microsomal stability assay; format: in vitro ADME; details: human, microsomes, 0.5 h, 0.5 μM, pH 7.4
Outline: (§1)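 Metabolic stability was followed in NADPH-supplemented incubations at 37° C., using microsomes prepared from human liver or from Sprague-Dawley rat liver.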

[2] = In vitro rat microsomal stability assay; format: in vitro ADME, rat (Sprague-Dawley); details: Sprague-Dawley, rat, microsomes, 0.5 h, 0.5 μM, pH 7.4
Outline: as §1

SMILES | IC50 (human TRPV3) [µM] | HUMAN MICROSOMAL STABILITY (% REMAINING AFTER 30 MINUTES) [1] [%] | RAT MICROSOMAL STABILITY (% REMAINING AFTER 30 MINUTES) [2] [%]
OC(c1ccccn1)C1(c2ccc(F)c(Cl)c2)CC2(C1)OCCO2 (stereo not drawn) [Example 255, [2-(3-chloro-4-fluorophenyl)-5,8-dioxaspiro[3.4]oct-2-yl](pyridin-2-yl)-methanol] | 5.49 | 54 | <0.01
OC(c1ccccn1)C1(c2ccc(Cl)c(Cl)c2)CCOCC1 (stereo not drawn) [Example 59, [4-(3,4-dichlorophenyl)tetrahydro-2H-pyran-4-yl](pyridin-2-yl)methanol] | 1.79 | 45 | 12
CC1(O)CC(c2ccnc(C(F)(F)F)c2)(C(O)c2ccccn2)C1 (single isomer, unassigned) [Example 307] | 8.23 | 73 | >85
OC1CC(c2ccc(Cl)c(Cl)c2)(C(O)c2ccccn2)C1 (single isomer, unassigned) [Example 247] | 4.31 | 62 | >85
CC1(O)CC(c2cc(C(F)(F)F)ccn2)(C(O)c2ccccn2)C1 (stereo not drawn) [Example 286] | 1.47 | >85 | 70
OC(c1ccccn1)C1(c2cccc(Oc3ccccc3)c2)CCC1 (stereo not drawn) [Example 23, [1-(3-phenoxyphenyl)cyclobutyl](pyridin-2-yl)methanol] | 0.93 | 0.12 | 0.69
OC(c1ccccn1)C1(c2nc3ccc(Cl)cc3o2)CCC1 (stereo not drawn) [Example 301, [1-(6-chloro-1,3-benzoxazol-2-yl)cyclobutyl](pyridin-2-yl)methanol] | 6.04 | 57 | 22

The remaining lines, values ahead:

IC50 (human TRPV3) [µM] | HUMAN MICROSOMAL STABILITY (% REMAINING AFTER 30 MINUTES) [1] [%] | RAT MICROSOMAL STABILITY (% REMAINING AFTER 30 MINUTES) [2] [%] | SMILES
6.11 | >85 | 60 | O=C1CC(c2ccc(C(F)(F)F)cc2)(C(O)c2ccccn2)C1 (stereo not drawn) [Example 160, 3-[hydroxy(pyridin-2-yl)methyl]-3-[4-(trifluoromethyl)phenyl]-cyclobutanone]
0.33 | 46 | 0.01 | COC1(OC)CC(c2ccc(OC(F)(F)F)cc2)(C(O)c2ccccn2)C1 (stereo not drawn) [Example 129, {3,3-dimethoxy-1-[4-(trifluoromethoxy)phenyl]cyclobutyl}(pyridin-2-yl)-methanol]
1.24 | 30 | 0.17 | OC(c1ccccn1)C1(c2ccc(Cl)c(Cl)c2)CCCO1 (single isomer, unassigned) [Example 99, (syn)-[2-(3,4-dichlorophenyl)tetrahydrofuran-2-yl](pyridin-2-yl)methanol]
> 10 | 54 | 21 | O[C@H](c1ncccn1)C1(c2ccc(C(F)(F)F)cc2)CCC1 [Example 41, (S)-pyrimidin-2-yl{1-[4-(trifluoromethyl)phenyl]cyclobutyl}methanol]
10.8 | >85 | 67 | CC1(O)CC(c2ccc(C(F)(F)F)cc2)(C(O)c2ccccn2)C1 (single isomer, unassigned) [Example 233]
0.36 | 55 | 3.8 | OC(c1ccccn1)C1(c2ccc(OC(F)(F)F)cc2)CCCO1 (single isomer, unassigned) [Example 94, (anti)-pyridin-2-yl{2-[4-(trifluoromethoxy)phenyl]tetrahydrofuran-2-yl}methanol]
9.33 | 81 | 72 | OC1CC(c2ccc(OC(F)(F)F)cc2)(C(O)c2ccccn2)C1 (single isomer, unassigned) [Example 132]
